# Data as given in patent US10787450B2 (BRISTOL-MYERS SQUIBB COMPANY, priority 2016, dated 2020).
# Counter-ions that a name gives are not always drawn.
# Biological target: ROCK2 (Homo sapiens (Human), UniProt O75116)
# Test: ROCK2 kinase inhibition assay (FITC peptide substrate, LABCHIP 3000 Reader)
# Type: biochemical
# Settings: 5 μM ATP, 1.5 μM peptide substrate
# Method: The effectiveness of compounds of the present invention as ROCK inhibitors can be determined in a 30 μL assay containing 20 mM HEPES, pH 7.5, 20 mM MgCl2, 0.015% Brij-35, 4 mM DTT, 5 μM ATP and 1.5 μM peptide substrate (FITC-AHA-AKRRRLSSLRA-OH) (SEQ ID NO. 1). Compounds were dissolved in DMSO so that the final concentration of DMSO was <2%, and the reaction was initiated with Rho kinase variants. After incubation, the reaction was terminated by the addition of EDTA and the phosphorylated and non-phosphorylated peptides separated using a LABCHIP® 3000 Reader (Caliper Life Sciences). […] Compounds were tested in dose-response format, and the inhibition of kinase activity was calculated at each concentration of compound. The inhibition data were fit using a curve-fitting program to determine the IC50; i.e., the concentration of compound required to inhibit 50% of kinase activity.
# Representative examples were tested in the ROCK2 assay described above and found having ROCK2 inhibitory activity.
# ROCK2, sequence (O75116 whole entry, species assumed): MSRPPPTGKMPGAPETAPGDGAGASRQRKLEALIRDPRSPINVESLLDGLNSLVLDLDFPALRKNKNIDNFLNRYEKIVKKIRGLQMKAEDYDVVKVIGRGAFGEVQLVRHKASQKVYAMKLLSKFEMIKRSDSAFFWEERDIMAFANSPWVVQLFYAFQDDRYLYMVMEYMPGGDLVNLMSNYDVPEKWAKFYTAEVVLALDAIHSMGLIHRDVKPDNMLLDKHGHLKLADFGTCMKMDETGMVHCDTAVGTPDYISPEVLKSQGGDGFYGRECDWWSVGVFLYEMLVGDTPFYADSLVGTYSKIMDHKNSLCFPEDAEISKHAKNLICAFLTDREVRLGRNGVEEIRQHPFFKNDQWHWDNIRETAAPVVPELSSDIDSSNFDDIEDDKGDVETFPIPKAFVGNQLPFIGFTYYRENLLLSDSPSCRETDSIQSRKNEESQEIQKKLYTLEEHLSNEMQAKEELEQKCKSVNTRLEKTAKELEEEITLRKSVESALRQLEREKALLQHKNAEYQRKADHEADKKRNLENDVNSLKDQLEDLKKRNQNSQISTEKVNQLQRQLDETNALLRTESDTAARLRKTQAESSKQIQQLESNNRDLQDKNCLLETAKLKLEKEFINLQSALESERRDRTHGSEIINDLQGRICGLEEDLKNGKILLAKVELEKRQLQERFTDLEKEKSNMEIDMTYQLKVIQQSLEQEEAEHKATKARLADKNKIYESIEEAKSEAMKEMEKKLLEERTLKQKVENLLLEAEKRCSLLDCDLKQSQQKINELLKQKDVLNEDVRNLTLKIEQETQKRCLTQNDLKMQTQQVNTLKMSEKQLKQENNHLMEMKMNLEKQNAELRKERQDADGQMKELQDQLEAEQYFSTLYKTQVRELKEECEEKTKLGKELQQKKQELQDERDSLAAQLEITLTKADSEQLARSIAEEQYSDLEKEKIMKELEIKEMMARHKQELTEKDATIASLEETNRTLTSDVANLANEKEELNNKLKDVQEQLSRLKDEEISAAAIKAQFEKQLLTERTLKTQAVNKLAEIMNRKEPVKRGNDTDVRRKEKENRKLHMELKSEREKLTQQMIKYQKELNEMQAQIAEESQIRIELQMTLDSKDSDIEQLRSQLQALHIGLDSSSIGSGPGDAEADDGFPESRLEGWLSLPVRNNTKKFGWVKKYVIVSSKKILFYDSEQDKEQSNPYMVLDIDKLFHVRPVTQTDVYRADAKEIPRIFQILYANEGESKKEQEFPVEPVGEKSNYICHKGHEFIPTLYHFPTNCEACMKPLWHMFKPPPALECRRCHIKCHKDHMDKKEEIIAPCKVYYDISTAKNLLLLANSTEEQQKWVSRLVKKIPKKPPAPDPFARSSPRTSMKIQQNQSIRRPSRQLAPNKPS
row,Compound,IC50
1,"O=C1N(c2ccc(-c3cn[nH]c3)cc2)CC2(CCNCC2)N1CC1CCOCC1 [Example 72, 3-(4-(1H-pyrazol-4-yl)phenyl)-1-((tetrahydro-2H-pyran-4-yl)methyl)-1,3,8-triazaspiro[4.5] decan-2-one]",250 to 3000 nM
2,"COc1cccc(CN2C(=O)N(c3ccc(-c4cn[nH]c4)cn3)CC23CCNCC3)c1 [Example 73, 3-(5-(1H-pyrazol-4-yl)pyridin-2-yl)-1-(3-methoxybenzyl)-1,3,8-triazaspiro[4.5]decan-2-one]",3 to 30 nM
3,"COc1cccc(CN2C(=O)N(c3ccc(-c4cn[nH]c4)c(C)n3)CC23CCNCC3)c1 [Example 74, 1-(3-methoxybenzyl)-3-(6-methyl-5-(1H-pyrazol-4-yl)pyridin-2-yl)-1,3,8-triazaspiro[4.5]decan-2-one]",3 to 30 nM
4,"CCc1nc(N2CC3(CCNCC3)N(Cc3cccc(OC)c3)C2=O)ccc1-c1cn[nH]c1 [Example 75, 3-(6-ethyl-5-(1H-pyrazol-4-yl)pyridin-2-yl)-1-(3-methoxybenzyl)-1,3,8-triazaspiro[4.5]decan-2-one, TFA]",< 3 nM
5,"COc1cccc(CN2C(=O)N(c3ccc(-c4cn[nH]c4)cc3)CC23CCN(C(C)=O)CC3)c1 [Example 76, 3-(4-(1H-pyrazol-4-yl)phenyl)-8-acetyl-1-(3-methoxybenzyl)-1,3,8-triazaspiro[4.5]decan-2-one]",< 3 nM
6,"CC(=O)N1CCC2(CC1)CN(c1ccc(-c3cn[nH]c3)cc1)C(=O)N2CC1CCCCC1 [Example 79, 3-(4-(1H-pyrazol-4-yl)phenyl)-8-acetyl-1-(cyclohexylmethyl)-1,3,8-triazaspiro[4.5]decan-2-one]",30 to 250 nM
7,"CC(=O)N1CCC2(CC1)CN(c1ccc(-c3cn[nH]c3)cc1)C(=O)N2Cc1cccc(F)c1C [Example 82, 3-(4-(1H-pyrazol-4-yl)phenyl)-8-acetyl-1-(3-fluoro-2-methylbenzyl)-1,3,8-triazaspiro[4.5]decan-2-one]",3 to 30 nM
8,"COc1cccc(CN2C(=O)N(c3ccc(-c4cn[nH]c4)cn3)CC23CCN(C(C)=O)CC3)c1 [Example 84, 3-(5-(1H-pyrazol-4-yl)pyridin-2-yl)-8-acetyl-1-(3-methoxybenzyl)-1,3,8-triazaspiro[4.5]decan-2-one]",< 3 nM
9,"COc1cccc(CN2C(=O)N(c3ccc(-c4cn[nH]c4)c(OC)n3)CC23CCN(C(C)=O)CC3)c1 [Example 85, 8-acetyl-3-(6-methoxy-5-(1H-pyrazol-4-yl)pyridin-2-yl)-1-(3-methoxybenzyl)-1,3,8-triazaspiro[4.5]decan-2-one]",< 3 nM

# The next lines start with the values.
row,IC50,Compound
1,30 to 250 nM,"CC(=O)N1CCC2(CC1)CN(c1ccc(-c3cn[nH]c3)cc1)C(=O)N2Cc1cccc(F)c1F [Example 77, 3-(4-(1H-pyrazol-4-yl)phenyl)-8-acetyl-1-(2,3-difluorobenzyl)-1,3,8-triazaspiro[4.5]decan-2-one]"
2,30 to 250 nM,"CC(=O)N1CCC2(CC1)CN(c1ccc(-c3cn[nH]c3)cc1)C(=O)N2Cc1cc(F)ccc1F [Example 78, 3-(4-(1H-pyrazol-4-yl)phenyl)-8-acetyl-1-(2,5-difluorobenzyl)-1,3,8-triazaspiro[4.5]decan-2-one]"
3,3 to 30 nM,"CC(=O)N1CCC2(CC1)CN(c1ccc(-c3cn[nH]c3)cc1)C(=O)N2Cc1ccc(F)cc1C [Example 80, 3-(4-(1H-pyrazol-4-yl)phenyl)-8-acetyl-1-(4-fluoro-2-methylbenzyl)-1,3,8-triazaspiro[4.5]decan-2-one]"
4,30 to 250 nM,"CC(=O)N1CCC2(CC1)CN(c1ccc(-c3cn[nH]c3)cc1)C(=O)N2Cc1ccc(F)cc1F [Example 81, 3-(4-(1H-pyrazol-4-yl)phenyl)-8-acetyl-1-(2,4-difluorobenzyl)-1,3,8-triazaspiro[4.5]decan-2-one]"
5,3 to 30 nM,"CC(=O)N1CCC2(CC1)CN(c1ccc(-c3cn[nH]c3)cc1)C(=O)N2Cc1cc(F)ccc1C [Example 83, 3-(4-(1H-pyrazol-4-yl)phenyl)-8-acetyl-1-(5-fluoro-2-methylbenzyl)-1,3,8-triazaspiro[4.5]decan-2-one]"
